For assay [1], the system named is Mus musculus. The assay can be described thus: Induction of interferon induction in po dosed mouse serum. It counts as functional, organism-based.
Assay [2] relates to Encephalomyocarditis virus. The assay can be described thus: Antiviral activity against Encephalomyocarditis virus infected in CF-1 mouse assessed as host survival time ratio at 50 mg/kg, sc administered 28, 22, 2 hrs before and 2 hrs after virus inoculation. It counts as functional. Particulars: route subcutaneous.
The subject of assay [3] is Human alphaherpesvirus 1. The assay can be described thus: In vitro antiviral activity against Herpesvirus hominis type 1 infected in African green monkey Vero cells assessed as log reduction of virus titer by cytopathologic assay (reference value: 5). It counts as functional.
Assay [4] concerns Mus musculus. Kind of assay: Induction of interferon induction in sc dosed mouse serum. It counts as functional, organism-based.
Assay [5] deals with Human alphaherpesvirus 1. The assay can be described thus: In vivo antiviral activity against Herpesvirus hominis type 1 infected in hairless mouse assessed as suppression of ulcerated zoster-like lesions development administered topically at 2, 4 and 6 hrs after virus inoculation followed by continuous treatment daily for 4 days four times a day at 2 hrs interval measured on 8th day post-infection. It counts as functional, organism-based.

For assay [6], the system named is Encephalomyocarditis virus. Kind of assay: Antiviral activity against Encephalomyocarditis virus infected in CF-1 mouse assessed as host survival time ratio at 250 mg/kg, sc administered 28, 22, 2 hrs before and 2 hrs after virus inoculation. It counts as functional. The conditions noted are these: route subcutaneous.
Assay [7] has as its system Human alphaherpesvirus 1. The assay can be described thus: In vivo antiviral activity against Herpesvirus hominis type 1 infected in po dosed white mouse assessed as suppression of raised, blister-like lesions. It counts as functional, organism-based.
The test system of a further assay is Semliki Forest virus. Kind of assay: Antiviral activity against Semliki forest virus infected in mouse. It counts as functional, organism-based.
Assay [8] deals with Encephalomyocarditis virus. The assay can be described thus: Antiviral activity against Encephalomyocarditis virus infected in CF-1 mouse assessed as host survival time ratio at 50 mg/kg, po administered via gavage at 28, 22, 2 hrs before and 2 hrs after virus inoculation. It counts as functional.
In assay [9] the test system is Venezuelan equine encephalitis virus. Kind of assay: Antiviral activity against Venezuelan equine encephalitis virus infected in po dosed monkey assessed as reduction in viremia. It counts as functional, organism-based.
The test system of assay [10] is Encephalomyocarditis virus. The assay can be described thus: Antiviral activity against Encephalomyocarditis virus infected in CF-1 mouse assessed as host survival time ratio at 250 mg/kg, po administered via gavage as single dose at 22 to 28 hrs before virus inoculation. It counts as functional.
Assay [11] deals with Human alphaherpesvirus 1. Kind of assay: In vivo antiviral activity against Herpesvirus hominis type 1 infected in hairless mouse assessed as decrease in lesion score administered topically at 2, 4 and 6 hrs after virus inoculation followed by continuous treatment daily for 4 days four times a day at 2 hrs interval measured on 8th day post-infection. It counts as functional, organism-based.

For a further assay, the system named is Vaccinia virus. Kind of assay: Antiviral activity against Vaccinia virus infected in mouse. It counts as functional, organism-based. Particulars: Orthopoxvirus vaccinia.
Assay [12] has as its system Encephalomyocarditis virus. Kind of assay: Antiviral activity against Encephalomyocarditis virus infected in CF-1 mouse assessed as host survival time ratio at 10 mg/kg, sc administered 28, 22, 2 hrs before and 2 hrs after virus inoculation. It counts as functional. The conditions noted are these: route subcutaneous.
For assay [13], the system named is Encephalomyocarditis virus. The assay can be described thus: Antiviral activity against Encephalomyocarditis virus infected in CF-1 mouse assessed as host survival time ratio at 250 mg/kg, sc administered as single dose at 22 hrs before virus inoculation. Particulars: route subcutaneous. It counts as functional.
The subject of assay [14] is Influenza A virus. The assay can be described thus: Antiviral activity against Influenza A virus A2 Jap/305 infected in mouse. It counts as functional, organism-based.
In assay [15] the test system is Influenza A virus. The assay can be described thus: Antiviral activity against Influenza A virus A0 (Pr8) infected in mouse. It counts as functional, organism-based.

Molecules are shown by their SMILES. Active and inactive are the calls of the source. No cut-off for these calls is given here.

As for `CN(C)CC(=O)c1ccc2oc3ccc(C(=O)CN(C)C)cc3c2c1.Cl`, the outcome with Mus musculus [1], in the assay on Mus musculus [4], with Semliki Forest virus and in the assay with Vaccinia virus was Active. Moreover, the Ratio is reported as 1.64 in assay [2]; 2 in assay [6]; 1.8 in assay [8]; 2.2 in assay [10]; 1.13 in [12]. The “log(activity)” value in the assay on Human alphaherpesvirus 1 [3] is given as 2.5. Also, the inhibition entry with Human alphaherpesvirus 1 [5] and in the assay with Human alphaherpesvirus 1 [7] was “inactive” each time. Further, the inhibition result (in assay [9]; in the assay with Human alphaherpesvirus 1 [11]) was “Active” throughout.

As for `Cl.O=C(CCCN1CCC(Cc2ccccc2)CC1)c1ccc2oc3ccc(C(=O)CCCN4CCC(Cc5ccccc5)CC4)cc3c2c1`, the Ratio in [2] came out at 1.7; in assay [13], 1.82; in assay [8] it was 1.07; in [10], 0.98; in assay [12], 1.27.

`CN(C)CC(=O)c1ccc2sc3ccc(C(=O)CN(C)C)cc3c2c1.Cl`: the result in the assay on Mus musculus [1], with Mus musculus [4], with Influenza A virus [14], with Influenza A virus [15], in the assay with Semliki Forest virus and in the assay with Vaccinia virus was Active. Further, the Ratio in assay [2] is 2.29; in assay [6] it was 2.29; in [8], 1.75; in assay [10], 2.29; in assay [12], 1.1. The “log(activity)” value in the assay on Human alphaherpesvirus 1 [3] was 2.5. The inhibition result in the assay with Human alphaherpesvirus 1 [5] and in the assay on Human alphaherpesvirus 1 [7] was “inactive” throughout. The inhibition result (in assay [9]; with Human alphaherpesvirus 1 [11]) was “Active” each time.

As to `CCN(CC)CCCOc1ccc2oc3ccc(OCCCN(CC)CC)cc3c2c1`, the Ratio is reported as 0.88 in assay [2]; 1.47 in assay [13]; 0.98 in [8]; 0.92 in [10]; 0.98 in assay [12].

As to `CCN(CC)CCOC(=O)c1ccc2oc3ccc(C(=O)OCCN(CC)CC)cc3c2c1.Cl`, the Ratio was 1.02 in [2]; 1.09 in assay [6]; 1.02 in [8]; 0.98 in [10]; 1 in [12].

Consider `CN(C)CCCOc1ccc2oc3ccc(OCCCN(C)C)cc3c2c1.Cl`, for which the Ratio in [2] came out at 1.24; in [6] it was 0.66; in [8], 0.92; in [10], 0.88; in [12], 0.92.

In the case of `CCN(CC)CCOc1ccc2oc3ccc(OCCN(CC)CC)cc3c2c1.Cl`, the Ratio is on record as 1.31 in assay [2]; 0.91 in assay [6]; 1.17 in assay [8]; 1.02 in assay [10]; 1.21 in assay [12].

With `Cl.c1cc2oc3ccc(OCCN4CCCCC4)cc3c2cc1OCCN1CCCCC1`, the Ratio in assay [2] was 1.25; in assay [6], 1.02; in assay [8] it was 0.85; in assay [10], 1.04; in [12] it was 0.94.

With `CCn1c2ccc(C(=O)CCCN3CCCCC3)cc2c2cc(C(=O)CCCN3CCCCC3)ccc21.Cl`, the Ratio is on record as 1.58 in [2]; 0.56 in assay [6]; 1.09 in assay [8]; 1.2 in [10]; 1.68 in [12].

For `CN(C)CCOc1ccc2sc3ccc(OCCN(C)C)cc3c2c1.Cl`, the Ratio in [2] is given as 1.13; in assay [6], 0.91; in assay [8], 0.98; in assay [10] it was 1.06; in assay [12], 1.09.

Consider `CCn1c2ccc(C(=O)CCCN(C)C)cc2c2cc(C(=O)CCCN(C)C)ccc21.O=C(O)/C=C/C(=O)O`, for which the Ratio in assay [2] is on record as 1.63; in assay [6] it was 1.44; in assay [8], 0.94; in assay [10] it was 1.06; in assay [12], 1.42.

On to `CC(C)N(CCOc1ccc2oc3ccc(OCCN(C(C)C)C(C)C)cc3c2c1)C(C)C`, for which the Ratio in [2] was 1.24; in [6], 1.14; in assay [8], 0.96; in assay [10], 0.88; in assay [12] it was 0.88.

Take `CCCCN(CCCC)CCCOc1ccc2sc3ccc(OCCCN(CCCC)CCCC)cc3c2c1.Cl`: the Ratio in assay [2] was 1.14; in assay [6], 0.96; in [8], 0.9; in assay [10], 0.88; in [12] it was 0.88.

Regarding `CC(COc1ccc2sc3ccc(OCC(C)CN(C)C)cc3c2c1)CN(C)C.Cl` (stereo not given), the Ratio was found to be 1.08 in assay [2]; 0.84 in assay [6]; 1.04 in [8]; 0.94 in assay [10]; 0.96 in assay [12].

Values taken from ChEMBL document CHEMBL3272338, “Bis-basic-substituted polycyclic aromatic compounds. A new class of antiviral agents. 8. Bis-basic derivatives of carbazole, dibenzofuran, and dibenzothiophene” (1977).
